The test system of one data set is HEK-Blue™ hTLR cells. Kind of data set: cytotoxicity, cell viability by CellTiter-Glo. The class given is cell-based, human. The conditions noted are these: cultured 1 day. The protocol: (§1) The compound was diluted with 1:3 series with DMSO for 9 concentration points, duplicated wells, and added to 96-well plate with Echo.
(§2) The HEK-Blue™ hTLR cells were suspended in the culture medium and then seeded into a 96-well plate containing the compound at a density of 50,000 cells/well. Cells were cultured at 5% CO2 and 37° C. for 1 day. The final concentration of DMSO in the cell culture medium was 0.5%.
According to the CellTiter-Glo instructions, the cell viability was measured, and the Luminescence signal value was read by the microplate reader, which was used to calculate the cytotoxicity of the compound.
(§3) The EC50 and CC50 values of the compound were calculated by GraphPad Prism software, and the fitting curve was plotted.

For a further data set, the target named is T1, hTLR8 (Homo sapiens, UniProt Q9NR97).
T1 construct: expressed in transfected cells; host or cells: HEK-Blue hTLR cells
T1 sequence (Q9NR97 27-1041): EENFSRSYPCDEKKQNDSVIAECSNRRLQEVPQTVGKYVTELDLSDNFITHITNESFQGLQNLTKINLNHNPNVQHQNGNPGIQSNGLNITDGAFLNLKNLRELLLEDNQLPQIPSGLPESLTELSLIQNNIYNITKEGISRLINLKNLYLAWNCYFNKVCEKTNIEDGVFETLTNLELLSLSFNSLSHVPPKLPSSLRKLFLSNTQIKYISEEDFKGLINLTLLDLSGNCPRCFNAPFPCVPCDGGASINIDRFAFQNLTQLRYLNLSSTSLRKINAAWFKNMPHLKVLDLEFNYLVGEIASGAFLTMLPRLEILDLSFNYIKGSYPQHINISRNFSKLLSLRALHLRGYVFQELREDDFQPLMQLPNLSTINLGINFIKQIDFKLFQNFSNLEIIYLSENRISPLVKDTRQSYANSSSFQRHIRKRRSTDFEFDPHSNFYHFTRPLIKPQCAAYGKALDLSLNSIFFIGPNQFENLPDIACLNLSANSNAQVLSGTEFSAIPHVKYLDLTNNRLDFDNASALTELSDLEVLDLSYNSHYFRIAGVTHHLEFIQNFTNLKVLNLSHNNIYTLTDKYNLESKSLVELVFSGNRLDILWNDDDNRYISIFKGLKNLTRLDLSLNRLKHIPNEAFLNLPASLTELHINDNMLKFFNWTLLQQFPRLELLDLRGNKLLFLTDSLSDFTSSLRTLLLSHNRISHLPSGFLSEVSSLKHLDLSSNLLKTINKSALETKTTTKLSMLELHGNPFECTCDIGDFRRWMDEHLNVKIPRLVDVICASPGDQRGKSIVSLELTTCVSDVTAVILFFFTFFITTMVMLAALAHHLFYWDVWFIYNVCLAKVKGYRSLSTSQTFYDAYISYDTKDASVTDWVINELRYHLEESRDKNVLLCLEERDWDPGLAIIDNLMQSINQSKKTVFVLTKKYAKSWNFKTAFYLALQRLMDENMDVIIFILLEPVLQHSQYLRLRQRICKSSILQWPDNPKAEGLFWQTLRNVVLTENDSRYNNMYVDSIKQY
Kind of data set: agonistic activity on hTLR8, HEK-Blue hTLR cells, SEAP reporter (QUANTI-Blue). The class given is cell-based. The conditions noted are these: HEK-Blue hTLR cells, SEAP reporter, OD650, cultured 1 day; read-out: TLR 8 EC50. The protocol:
Experiments on the agonistic activity of TLR7 and TLR8 by the compounds in vitro
as §1, §2
20 uL cell culture supernatant was taken, according to the QUANTI-Blue instructions, the reporter gene SEAP in the supernatant was detected, and the OD650 signal value was read with a microplate reader to calculate the agonist activity of the compound on the hTLR7 and hTLR8.
as §3

For the molecule `CCOCc1nc2c(N)nc3ccccc3c2n1C[C@@H](C)OP(=O)(N[C@@H](C)C(=O)OC(C)C)Oc1cccc2ccccc12` (single isomer, unassigned) [Example 5B], the cytotoxic concentration (CC50) with HEK-Blue™ hTLR cells is > 30000 nM. Also, the EC50 at hTLR8 is 17 nM.

Source of the values: patent publication US20230008368A1, “IMIDAZOQUINOLINE SUBSTITUTED PHOSPHORIC ESTER AGONIST, AND PREPARATION THEREFOR AND APPLICATION THEREOF” (SUZHOU ZELGEN BIOPHARMACEUTICALS CO., LTD., priority 2019, published 2023).
